Legend:
[1] = tested on: A549, HBL-100, HeLa, SW1573, T-47D, WiDr; experiment: antiproliferative assay (NCI protocol), panel of six human tumor cell lines; format: cell-based; settings: normoxic conditions
Method: (§1) Some representative compounds (5a–e, 16b, 16e–i) were also tested as potential antiproliferative agents against a panel of six human tumor cell lines: A549 (non-small cell lung), HBL-100 (breast), HeLa (cervix), SW1573 (non-small cell lung), T-47D (breast), WiDr (colon). Unfortunately, no relevant activity was found for the tested compounds.
(§2) Minor modifications of the US National Cancer Institute (NCI) protocol were used.

hCA IX = biological target: T1, hCA IX (Homo sapiens, UniProt Q16790); experiment: stopped-flow CO2 hydrase assay, hCA IX; format: biochemical
T1 construct: made in house
Method: (§3) For that purpose, the stopped-flow CO2 hydration assay was used (Table 1).
(§4) The inhibitory properties of title compounds against CAs were determined using the stopped-flow CO2 hydrase assay, as previously reported.

hCA I = biological target: T2, hCA I (Homo sapiens, UniProt P00915); experiment: stopped-flow CO2 hydrase assay, hCA I; format: biochemical
T2 construct: made in house
Method: as §3, §4

hCA XII = biological target: T3, hCA XII (Homo sapiens, UniProt O43570); experiment: stopped-flow CO2 hydrase assay, hCA XII; format: biochemical
T3 construct: made in house
Method: as §3, §4

hCA II = biological target: T4, hCA II (Homo sapiens, UniProt P00918); experiment: stopped-flow CO2 hydrase assay, hCA II; format: biochemical
T4 construct: made in house
Method: as §3, §4

[2] = tested on: A549 (non-small cell lung); experiment: antiproliferative assay (NCI protocol), A549; format: cell-based; settings: Homo sapiens; line A549; normoxic conditions
Method: as §1, §2

[3] = sulfonamido-containing squaramides, mean from 3 assays, stopped flow
[4] = coumarin-containing squaramides, incubation time 6 h, mean from three assays

T3 sequence (O43570 25-354): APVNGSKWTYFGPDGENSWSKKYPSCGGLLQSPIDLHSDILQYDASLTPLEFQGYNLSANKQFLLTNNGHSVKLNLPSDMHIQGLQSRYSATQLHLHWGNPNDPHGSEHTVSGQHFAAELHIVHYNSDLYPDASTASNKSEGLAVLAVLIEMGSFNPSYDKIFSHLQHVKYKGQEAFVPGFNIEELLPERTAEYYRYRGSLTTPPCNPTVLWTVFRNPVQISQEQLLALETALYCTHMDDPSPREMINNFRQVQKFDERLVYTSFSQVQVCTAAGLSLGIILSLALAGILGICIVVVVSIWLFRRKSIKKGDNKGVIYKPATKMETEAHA
T2 sequence (P00915 whole entry): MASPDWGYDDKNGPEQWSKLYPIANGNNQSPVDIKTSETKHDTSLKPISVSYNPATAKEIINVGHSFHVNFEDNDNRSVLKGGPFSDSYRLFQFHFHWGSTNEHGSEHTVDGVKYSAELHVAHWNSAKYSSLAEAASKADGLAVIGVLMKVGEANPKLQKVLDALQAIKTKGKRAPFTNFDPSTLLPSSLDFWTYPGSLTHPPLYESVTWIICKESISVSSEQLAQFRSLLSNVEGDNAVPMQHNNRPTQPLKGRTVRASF

| Ki (hCA IX; [4]) [nM] | melting point [°C] | Ki (hCA I; [4]) [nM] | Ki (hCA XII; [4]) [nM] | Ki (hCA II; [4]) [nM] | SMILES | GI50 ([1]; all the cell lines) [nM] | other results |
| --- | --- | --- | --- | --- | --- | --- | --- |
| – | – | – | – | – | NS(=O)(=O)c1ccc(CCNc2c(NCCc3ccc(S(N)(=O)=O)cc3)c(=O)c2=O)cc1 [Compound 6, 3,4-Bis[2′-(4″-sulfonamidophenyl)ethylamino]cyclobut-3-ene-1,2-dione] | > 100000 | S.I. I/IX (hCA IX; Ki (CA I)/Ki (CA IX)): 0.52; S.I. II/IX (hCA IX; Ki (CA II)/Ki (CA IX)): 0.68; Ki (hCA IX; [3]): 83 nM; Ki (hCA I; [3]): 43.2 nM; S.I. I/XII (hCA XII; Ki (CA I)/Ki (CA XII)): 0.49; S.I. II/XII (hCA XII; Ki (CA II)/Ki (CA XII)): 0.64; Ki (hCA XII; [3]): 87.8 nM; Ki (hCA II; [3]): 56.2 nM |
| 44.1 | > 250 | > 10000 | 14.3 | > 10000 | Cc1cc(=O)oc2cc(OCCCCCNc3c(Nc4ccccc4)c(=O)c3=O)ccc12 [Compound 16b, 3-{[5′-((4″-Methyl-2″-oxo-2″H-chromen-7″-yl)oxy)pentyl]amino}-4-phenylaminocyclobut-3-ene-1,2-dione] | – | GI50 ([1]; the rest of the cell lines (other than A549)): > 100000 nM; GI50 [2]: 94000 ± 10000 nM |
| 59.7 | 215 to 216 | > 10000 | 19.5 | > 10000 | COc1ccc(Nc2c(NCCCCCOc3ccc4c(C)cc(=O)oc4c3)c(=O)c2=O)cc1 [Compound 16e, 3-[(4′-Methoxyphenyl)amino]-4-{[5″-(4‴-methyl-2‴-oxo-2‴H-chromen-7‴-yl)oxypentyl]amino}cyclobut-3-ene-1,2-dione] | > 100000 | – |
| 43.7 | – | > 10000 | 15.9 | > 10000 | Cc1cc(=O)oc2cc(OCCCCCNc3c(Nc4ccc(F)cc4)c(=O)c3=O)ccc12 [Compound 16f, 3-[(4′-Fluorophenyl)amino]-4-{[5″-(4‴-methyl-2‴-oxo-2‴H-chromen-7‴-yl)oxypentyl]amino}cyclobut-3-ene-1,2-dione] | > 100000 | – |
| 113 | > 250 | > 10000 | 62.9 | > 10000 | Cc1c(C)c2ccc(OCCCCCNc3c(Nc4ccc(F)cc4)c(=O)c3=O)cc2oc1=O [Compound 16l, 3-{[5′-(3″,4″-Dimethyl-2″-oxo-2″H-chromen-7″-yl)oxypentyl]amino}-4-(4‴-fluorophenylamino)cyclobut-3-ene-1,2-dione] | – | – |
| 96.6 | > 250 | > 10000 | 43 | > 10000 | Cc1c(C)c2ccc(OCCCCCNc3c(Nc4ccc(Cl)cc4)c(=O)c3=O)cc2oc1=O [Compound 16m, 3-[(4′-Chlorophenyl)amino]-4-{[5″-(3‴,4‴-dimethyl-2‴-oxo-2‴H-chromen-7‴-yl)oxypentyl]amino}cyclobut-3-ene-1,2-dione] | – | – |
| 92.1 | > 250 | > 10000 | 50.8 | > 10000 | Cc1c(C)c2ccc(OCCCCCNc3c(Nc4ccc(I)cc4)c(=O)c3=O)cc2oc1=O [Compound 16o, 3-{[5′-(3″,4″-Dimethyl-2″-oxo-2″H-chromen-7″-yl)oxypentyl]amino}-4-(4‴-iodophenylamino)cyclobut-3-ene-1,2-dione] | – | – |
| 267 | 209 to 210 | > 10000 | 87.9 | > 10000 | O=c1cc(-c2ccccc2)c2ccc(OCCCCCNc3c(Nc4ccccc4)c(=O)c3=O)cc2o1 [Compound 16p, 3-Phenylamino-4-{[5′-(4″-Phenyl-2″-oxo-2″H-chromen-7″-yl)oxypentyl]amino}cyclobut-3-ene-1,2-dione] | – | fold decreased activity compared with 16b, CA IX (hCA IX; vs 16b): roughly 6.1 fold; fold decreased activity compared with 16b, CA XII (hCA XII; vs 16b): roughly 6.1 fold |

Source: PMC9318203, “Squaramide-Tethered Sulfonamides and Coumarins: Synthesis, Inhibition of Tumor-Associated CAs IX and XII and Docking Simulations” (International Journal of Molecular Sciences, 2022)
